SMILES strings stand for the structures.

Settings in the first series: not given
In turn, `CCN(CC)C(=S)[S-].[Na+]` yielded a melting point of 98 °C.

On to `CC(=O)OCC1=C[C@@H]2OC(=O)C3=COC(O[C@@H]4O[C@H](CO)[C@@H](O)[C@H](O)[C@H]4O)C1C32` (some centres not stated), for which the melting point worked out at 132 °C.

With `Nc1ccc(S(=O)(=O)NC(=O)c2ccccc2)cc1`, the melting point came to 182 °C.

With `CC(C)[C@H]1CC[C@H](C)C[C@@H]1OCC(=O)O`, the melting point amounted to 54 °C.

Consider `Cc1cccc(OP(=O)(Oc2cccc(C)c2)Oc2cccc(C)c2)c1`, for which the log10 Henry constant (atm·m³/mol) is -4.08, the melting point came out at 25.5 °C and the ready biodegradability result is recorded as “readily biodegradable”.

`CC=C[C@H](O)CCCC` registered a boiling point of 175 °C.

Turning to `c1coc(CNc2[nH]cnc3ncnc2-3)c1`, the melting point turned out to be 266 °C.

The compound `Cc1ccc(N(CC2=NCCN2)c2cccc(O)c2)cc1` had a melting point of 174 °C.

Compound `C1=CCCC=CCC1` came in with a boiling point of 151 °C, a log10 vapour pressure (mmHg) of 0.695 and a melting point of -56.4 °C.

In the case of `CC(Br)C(Br)C(=O)O` (configuration not stated), the melting point is 87 °C.

`COC(=O)c1cc(Oc2ccc(C(F)(F)F)cc2Cl)ccc1[N+](=O)[O-]` registered a log10 vapour pressure (mmHg) of -7.12.

Compound `N#Cc1ccccc1[N+](=O)[O-]` came in with a melting point of 108 °C.

As for `Cc1ccc(CCl)c(C)c1`, the boiling point was 216 °C.

Consider `CN1CCC(=C2c3ccccc3C=Cc3ccccc32)CC1`, for which the melting point was determined as 113 °C.

On to `CC(C)C=O`, for which the boiling point came to 64.5 °C, the log10 vapour pressure (mmHg) stood at 2.24, the melting point is -65.9 °C and the ready biodegradability entry is listed as “readily biodegradable”.

Consider `CC(C)(c1cc(Br)c(OCCO)c(Br)c1)c1cc(Br)c(OCCO)c(Br)c1`, for which the melting point turned out to be 107 °C and the ready biodegradability entry is “not readily biodegradable”.

As for `C=CC1CC=CCC1` (configuration not stated), the boiling point came to 128 °C, the log10 vapour pressure (mmHg) worked out at 1.2, the melting point was -109 °C and the ready biodegradability entry is recorded as “not readily biodegradable”.

In the case of `CCCCCCCCOC(=O)CCCCCCCCC(=O)OCCCCCCCC`, the ready biodegradability result is on record as “readily biodegradable”.

For `COCC(C)OC` (configuration not stated), the boiling point turned out to be 96 °C.

Compound `C[SiH](Cl)Cl` displayed a boiling point of 41 °C, a log10 vapour pressure (mmHg) of 2.63 and a melting point of -93 °C.

`CC(Br)C(Br)CBr` (configuration not stated) registered a boiling point of 220 °C and a melting point of -19 °C.

Compound `CC(C)(C)c1ccccn1` displayed a boiling point of 170 °C and a melting point of -33 °C.

Regarding `CCCc1cc(=O)[nH]c(=S)[nH]1`, the melting point was found to be 219 °C and the ready biodegradability entry is “not readily biodegradable”.

For the compound `Oc1ccc(C(c2ccc(O)cc2)(C(F)(F)F)C(F)(F)F)cc1`, the melting point was found to be 162 °C.

`Clc1ccc(Cl)c(Oc2ccccc2)c1` gave a log10 vapour pressure (mmHg) of -3.

Take `O=c1c2ccccc2oc2ccccc12`: the boiling point came to 351 °C and the melting point came out at 174 °C.

Regarding `CCCOP(=S)(OCCC)SCC(=O)N1CCCCC1C` (configuration not stated), the log10 Koc (L/kg) was found to be 3.44 and the log10 vapour pressure (mmHg) is -6.62.

`CCOc1ccccc1C(=O)O` registered a melting point of 20.7 °C.

Take `CC(=O)CC(C)(C)N`: the boiling point turned out to be 180 °C and the log10 vapour pressure (mmHg) is -0.699.

`O=C(O)C1C(C(=O)O)C2(Cl)C(Cl)=C(Cl)C1(Cl)C2(Cl)Cl` (configuration not stated): the log10 Koc (L/kg) is 2.79, the melting point was determined as 209 °C and the ready biodegradability result is “not readily biodegradable”.

The compound `CCOC(OCC)N(C)C` yielded a boiling point of 129 °C.

Consider `Cc1ccc(C(C)(C)C)cc1`, for which the boiling point came out at 190 °C, the melting point is -52 °C and the ready biodegradability result is “readily biodegradable”.

`C=CC(F)(F)C(F)(F)C(F)(F)C(F)(F)C(F)(F)C(F)(F)C(F)(F)C(F)(F)F` yielded a boiling point of 150 °C.

`C=C1C[C@H]2[C@@H]3CCC4=CC(=O)C=C[C@]4(C)[C@H]3[C@@H](O)C[C@]2(C)[C@@]1(O)C(=O)CO` came in with a melting point of 234 °C.

Compound `CC[Si](Cl)(Cl)Cl` registered a boiling point of 100 °C, a log10 vapour pressure (mmHg) of 1.67 and a melting point of -106 °C.

Compound `CCCCC(CC)CCl` (configuration not stated) showed a boiling point of 172 °C and a log10 vapour pressure (mmHg) of 0.0792.

For `CCCCNC(=O)n1cc(F)c(=O)[nH]c1=O`, the melting point was found to be 136 °C.

The same series, now with this note: fish.
Compound `C=CC1CC=CCC1` (configuration not stated) returned a log10 BCF of 2.22 and a log10 biotransformation half-life (days) of -0.41.

`O=C(O)C1C(C(=O)O)C2(Cl)C(Cl)=C(Cl)C1(Cl)C2(Cl)Cl` (configuration not stated): the log10 BCF came to 0.32.

For `Cc1ccc(C(C)(C)C)cc1`, the log10 biotransformation half-life (days) stood at 0.31.

The values are drawn from the OPERA property sets (Mansouri et al. 2018).
